Data set [1] can be described thus: DPPH free radical scavenging assay. As to conditions: 10^−4 mol/L; 30 min incubation; vs solvent + reaction mixture blank. The method, then:
(§1) In order to determine the possible antioxidant properties, selected compounds were tested in 2,2-diphenyl-1-picrylhydrazyl (DPPH) and ferric reducing antioxidant power (FRAP) assay with ascorbic acid as a reference compound (Table 2). For details, please refer to the Materials and Methods Section. Graphical representation of tests results can be found in Supplementary Material.
(§2) Antioxidant properties of compounds were tested in vitro in two different assays: the 2,2-diphenyl-1-picrylhydrazyl (DPPH) assay and the FeCl3 reduction activity assay (FRAP, ferric reducing antioxidant power). The tested compounds and ascorbic acid were dissolved in DMSO at the 10^−2 mol/L concentration, and in ethanol at the concentration of 10^−4 mol/L respectively. Moreover, 30% and 50% ascorbic acid activity cut-off for DPPH and FRAP assays respectively were set ad hoc.
DPPH is a molecule containing a stable free radical. The reduction of DPPH (purple) in ethanol solution takes place in the presence of a hydrogen-donating antioxidant due to the formation of the non-radical form of DPPH-H (yellow). This transformation results in color change from purple to yellow, which can be measured spectrophotometrically. Thus, the decrease in absorbance is proportional to the decrease in concentration of DPPH (free radical) and discoloration of reaction mixture indicates the scavenging of free radicals by a tested antioxidant.
In order to determine antioxidant capacity, 20 μL of the compound solutions (dissolved in 96% ethanol) was mixed with 180 μL of 0.3 mM ethanolic DPPH solution. The change in the absorbance was detected at 517 nm after 30 min of incubation. Results were expressed as percentage decrease in absorbance of the tested sample, compared to the sample containing the solvent + reaction mixture (blank with maximum concentration of the DPPH radical). L-ascorbic acid was used as a reference compound. Calculations were made using MS Excel, from the proportion where the change of absorbance in the vitamin C (vit. C) group was treated as 100%, according to Equation (1):(1) % activity of Vit.C=ΔAb×100/ΔAVit. C
Calculation of % Vit. C activity: ΔAb -the change in the absorbance of the test sample and ΔAVit. C is change in the absorbance of reference sample, or with vit. C.

A short description of data set [2]: FRAP (ferric reducing antioxidant power) assay. As to conditions: 10 min incubation, vs sample containing solvent. The protocol:
as §1, §2
A modified method of Benzie and Strain [38] was adopted for the FRAP assay. The stock solutions included 300 mM acetate buffer (3.1 g of C2H3NaO2 × 3H2O and 16 mL of C2H4O2), pH 3.6, 10 mM TPTZ (2,4,6-tripyridyl-s-triazine) solution in 40 mM HCl, and 20 mM FeCl3 × 6H2O solution. The working solution was prepared by mixing 10 parts of acetate buffer, 1 part of TPTZ solution, and 1 part of FeCl3 × 6H2O solution. A portion of 180 μL of the FRAP solution was mixed with 20 μL of the tested compound solution and incubated at room temperature for 10 min in the dark. Readings of the color product (ferrous tripyridyl triazine complex) were then taken at 593 nm against ethanol. Results are expressed as an increase in absorbance of the test sample compared to a sample containing the solvent. L-ascorbic acid was used as reference compound.

Data set [3] deals with T1, human recombinant histamine H3R stably expressed in HEK-293 cells (Homo sapiens, UniProt Q9Y5N1).
T1 construct: HEK-293 cells stably expressing the recombinant full length hH3R; expressed in transfected cells; crude membrane preparations
T1 sequence (Q9Y5N1 whole entry): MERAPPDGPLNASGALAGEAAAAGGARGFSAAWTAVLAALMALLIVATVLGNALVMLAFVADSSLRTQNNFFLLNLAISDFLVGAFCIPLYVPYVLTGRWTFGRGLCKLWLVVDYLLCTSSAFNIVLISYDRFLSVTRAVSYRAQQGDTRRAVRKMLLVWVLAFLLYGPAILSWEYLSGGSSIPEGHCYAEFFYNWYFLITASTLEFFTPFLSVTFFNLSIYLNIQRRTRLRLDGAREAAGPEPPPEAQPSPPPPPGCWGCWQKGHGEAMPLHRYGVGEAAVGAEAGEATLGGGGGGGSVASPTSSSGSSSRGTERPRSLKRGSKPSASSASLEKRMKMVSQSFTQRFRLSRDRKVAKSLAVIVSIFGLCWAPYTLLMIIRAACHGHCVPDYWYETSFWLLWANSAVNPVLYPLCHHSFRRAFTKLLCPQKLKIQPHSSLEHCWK
Description: [3H]Nα-methylhistamine hH3R displacement (radioligand depletion) binding assay. As to conditions: [3H]Nα-methylhistamine displacement, HEK-293 membranes, mean [95% confidence interval]. From the text:
Unbound radioligand was removed by three washing steps with ice-cold water.

[4] abbreviates: read-out: hH3R Ki [nM] x¯ [CI 95%].

Each structure is given as a SMILES string. Where two headings read alike, the source gives them in different places. Where only a bound is given, the exact number is not on record here.

For the compound `O=C1O[C@H]([C@@H](O)CO)C(O)=C1O` [Ascorbic acid, L-ascorbic acid, reference compound], in data set [1], the “DPPH Assay (λ = 517 nm) Absorbance Decrease in 10^−4 mol/L Concentration [%] Mean ± SEM” value was determined as 20.52 ± 0.51%. Also, the “FRAP Assay (λ = 593 nm) Absorbance Increase in 10^−4 mol/L Concentration [%] Mean ± SEM” value in data set [2] was found to be 344.20 ± 4.65%.

What is called melting point is the temperature of the solid-liquid transition. For orientation: Ki means the dissociation constant of the complex between target and ligand, obtained from inhibition or displacement. With `CC(=O)N1CCN(CCCOc2ccc(C(=O)c3ccccc3)cc2)CC1.O=C(O)C(=O)O` [Compound 4, 1-(4-(3-(4-Benzoylphenoxy)propyl)piperazin-1-yl)ethan-1-one hydrogen oxalate], the melting point was 136.8 to 140 °C. For the same compound, in data set [3] (hH3R Ki [nM] x¯ [CI 95%]), the Ki stood at 3650 nM.

As to `CC(=O)N1CCN(CCCOc2ccc(C(=O)c3ccc(Cl)cc3)cc2)CC1` [Compound 5, 1-(4-(3-(4-(4-Chlorobenzoyl)phenoxy)propyl)piperazin-1-yl)ethan-1-one], the Ki in data set [3] (setting [4]) stood at 1260 nM.

In the case of `CC(=O)N1CCN(CCCOc2ccc(C(=O)c3ccc(F)cc3)cc2)CC1.O=C(O)C(=O)O` [Compound 6, 1-(4-(3-(4-(4-Fluorobenzoyl)phenoxy)propyl)piperazin-1-yl)ethan-1-one hydrogen oxalate], the melting point lay in the range of 171.3 to 173.1 °C. Moreover, in data set [1], the “DPPH Assay (λ = 517 nm) Absorbance Decrease in 10^−4 mol/L Concentration [%] Mean ± SEM” value was 8.82 ± 0.12%. Further, the Ki in data set [3] (hH3R Ki [nM] x¯ [CI 95%]) is 1100 nM. Moreover, the “FRAP Assay (λ = 593 nm) Absorbance Increase in 10^−4 mol/L Concentration [%] Mean ± SEM” value in data set [2] was 0.79 ± 0.39%.

`O=C(O)C(=O)O.O=C(c1ccccc1)c1ccc(OCCCN2CCN(C(=O)C3CC3)CC2)cc1` [Compound 7, (4-(3-(4-Benzoylphenoxy)propyl)piperazin-1-yl)(cyclopropyl)methanone hydrogen oxalate] came in with a melting point of 167.3 to 168.6 °C. Further, the “DPPH Assay (λ = 517 nm) Absorbance Decrease in 10^−4 mol/L Concentration [%] Mean ± SEM” value in data set [1] came out at 6.23 ± 0.53%. Also, in data set [3] (hH3R Ki [nM] x¯ [CI 95%]), the Ki worked out at 1330 nM. In data set [2], the “FRAP Assay (λ = 593 nm) Absorbance Increase in 10^−4 mol/L Concentration [%] Mean ± SEM” value is 1.43 ± 0.32%.

`O=C(O)C(=O)O.O=C(c1ccc(Cl)cc1)c1ccc(OCCCN2CCN(C(=O)C3CC3)CC2)cc1` [Compound 8, (4-(3-(4-(4-Chlorobenzoyl)phenoxy)propyl)piperazin-1-yl)(cyclopropyl)methanone hydrogen oxalate]: the melting point fell in the range of 176.9 to 179.2 °C. In addition, the “DPPH Assay (λ = 517 nm) Absorbance Decrease in 10^−4 mol/L Concentration [%] Mean ± SEM” value in data set [1] is recorded as 6.79 ± 0.51%. Also, the Ki in data set [3] (hH3R Ki [nM] x¯ [CI 95%]) was > 1000 nM. The “FRAP Assay (λ = 593 nm) Absorbance Increase in 10^−4 mol/L Concentration [%] Mean ± SEM” value in data set [2] is given as 0.48 ± 0.48%.

Compound `O=C(O)C(=O)O.O=C(c1ccc(F)cc1)c1ccc(OCCCN2CCN(C(=O)C3CC3)CC2)cc1` [Compound 9, (4-(3-(4-(Cyclopropanecarbonyl)piperazin-1-yl)propoxy)phenyl)(4-fluorophenyl)methanone hydrogen oxalate] had a melting point of 181.1 to 182.7 °C. For the same compound, the “DPPH Assay (λ = 517 nm) Absorbance Decrease in 10^−4 mol/L Concentration [%] Mean ± SEM” value in data set [1] was found to be 7.70 ± 0.41%. Moreover, in data set [3] (hH3R Ki [nM] x¯ [CI 95%]), the Ki was 1670 nM. Further, the “FRAP Assay (λ = 593 nm) Absorbance Increase in 10^−4 mol/L Concentration [%] Mean ± SEM” value in data set [2] stood at 1.75 ± 0.22%.

For `CC(=O)c1ccc(N2CCN(CCCOc3ccc(C(=O)c4ccccc4)cc3)CC2)cc1` [Compound 10, 1-(4-(4-(3-(4-Benzoylphenoxy)propyl)piperazin-1-yl)phenyl)ethan-1-one], the melting point was 148.4 to 151.4 °C. Also, the “DPPH Assay (λ = 517 nm) Absorbance Decrease in 10^−4 mol/L Concentration [%] Mean ± SEM” value in data set [1] is recorded as 2.44 ± 0.97%. Also, in data set [3] (setting [4]), the Ki is 633 nM. Besides, the “FRAP Assay (λ = 593 nm) Absorbance Increase in 10^−4 mol/L Concentration [%] Mean ± SEM” value in data set [2] stood at 3.66 ± 0.59%.

In turn, `O=C(c1ccccc1)c1ccc(OCCCN2CCN(c3ccc([N+](=O)[O-])cc3)CC2)cc1` [Compound 13, (4-(3-(4-(4-Nitrophenyl)piperazin-1-yl)propoxy)phenyl)(phenyl)methanone] had a melting point of 182.3 to 183.9 °C. Moreover, the Ki in data set [3] (setting [4]) was > 1000 nM.

With `O=C(c1ccc(F)cc1)c1ccc(OCCCN2CCN(c3ccc([N+](=O)[O-])cc3)CC2)cc1` [Compound 15, (4-Fluorophenyl)(4-(3-(4-(4-nitrophenyl)piperazin-1-yl)propoxy)phenyl)methanone], the melting point lay within 173.3 to 174.2 °C. In addition, in data set [3] (setting [4]), the Ki was found to be 580 nM.

The values above are taken from PMC8071534, “Discovery of Potential, Dual-Active Histamine H3 Receptor Ligands with Combined Antioxidant Properties” (Molecules, 2021).
